Results from ChEMBL document CHEMBL3991601, “The target landscape of clinical kinase drugs” (Science, 2017).
Calls of active or inactive are those of the source.

Columns and labels:
[1] = target: T1, Glycogen phosphorylase, brain form (Homo sapiens, UniProt P11216)
T1 sequence (P11216 whole entry): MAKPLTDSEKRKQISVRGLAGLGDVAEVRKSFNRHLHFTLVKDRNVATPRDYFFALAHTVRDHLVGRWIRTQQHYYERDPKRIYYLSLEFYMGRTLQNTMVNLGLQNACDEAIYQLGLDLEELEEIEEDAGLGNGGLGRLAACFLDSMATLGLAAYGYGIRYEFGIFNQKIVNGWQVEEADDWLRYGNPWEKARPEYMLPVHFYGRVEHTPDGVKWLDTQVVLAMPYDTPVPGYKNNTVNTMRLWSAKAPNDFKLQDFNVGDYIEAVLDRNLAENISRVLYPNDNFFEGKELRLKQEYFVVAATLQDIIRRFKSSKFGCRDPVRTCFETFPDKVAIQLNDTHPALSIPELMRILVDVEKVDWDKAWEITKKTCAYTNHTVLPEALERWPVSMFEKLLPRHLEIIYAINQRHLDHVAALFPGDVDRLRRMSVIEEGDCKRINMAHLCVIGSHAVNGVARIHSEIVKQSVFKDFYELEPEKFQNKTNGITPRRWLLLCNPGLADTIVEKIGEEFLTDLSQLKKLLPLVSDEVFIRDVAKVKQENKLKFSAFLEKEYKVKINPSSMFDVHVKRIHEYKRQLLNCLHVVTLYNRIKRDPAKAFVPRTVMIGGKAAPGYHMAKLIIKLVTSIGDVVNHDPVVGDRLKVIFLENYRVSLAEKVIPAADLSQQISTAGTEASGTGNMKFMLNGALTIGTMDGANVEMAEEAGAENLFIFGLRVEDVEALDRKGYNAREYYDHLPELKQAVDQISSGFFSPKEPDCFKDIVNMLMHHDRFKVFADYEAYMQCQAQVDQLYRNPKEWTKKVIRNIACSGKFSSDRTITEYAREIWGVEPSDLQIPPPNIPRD

[2] = target: T2, Serine/threonine-protein kinase ULK1 (Homo sapiens, UniProt O75385)
T2 sequence (O75385 whole entry): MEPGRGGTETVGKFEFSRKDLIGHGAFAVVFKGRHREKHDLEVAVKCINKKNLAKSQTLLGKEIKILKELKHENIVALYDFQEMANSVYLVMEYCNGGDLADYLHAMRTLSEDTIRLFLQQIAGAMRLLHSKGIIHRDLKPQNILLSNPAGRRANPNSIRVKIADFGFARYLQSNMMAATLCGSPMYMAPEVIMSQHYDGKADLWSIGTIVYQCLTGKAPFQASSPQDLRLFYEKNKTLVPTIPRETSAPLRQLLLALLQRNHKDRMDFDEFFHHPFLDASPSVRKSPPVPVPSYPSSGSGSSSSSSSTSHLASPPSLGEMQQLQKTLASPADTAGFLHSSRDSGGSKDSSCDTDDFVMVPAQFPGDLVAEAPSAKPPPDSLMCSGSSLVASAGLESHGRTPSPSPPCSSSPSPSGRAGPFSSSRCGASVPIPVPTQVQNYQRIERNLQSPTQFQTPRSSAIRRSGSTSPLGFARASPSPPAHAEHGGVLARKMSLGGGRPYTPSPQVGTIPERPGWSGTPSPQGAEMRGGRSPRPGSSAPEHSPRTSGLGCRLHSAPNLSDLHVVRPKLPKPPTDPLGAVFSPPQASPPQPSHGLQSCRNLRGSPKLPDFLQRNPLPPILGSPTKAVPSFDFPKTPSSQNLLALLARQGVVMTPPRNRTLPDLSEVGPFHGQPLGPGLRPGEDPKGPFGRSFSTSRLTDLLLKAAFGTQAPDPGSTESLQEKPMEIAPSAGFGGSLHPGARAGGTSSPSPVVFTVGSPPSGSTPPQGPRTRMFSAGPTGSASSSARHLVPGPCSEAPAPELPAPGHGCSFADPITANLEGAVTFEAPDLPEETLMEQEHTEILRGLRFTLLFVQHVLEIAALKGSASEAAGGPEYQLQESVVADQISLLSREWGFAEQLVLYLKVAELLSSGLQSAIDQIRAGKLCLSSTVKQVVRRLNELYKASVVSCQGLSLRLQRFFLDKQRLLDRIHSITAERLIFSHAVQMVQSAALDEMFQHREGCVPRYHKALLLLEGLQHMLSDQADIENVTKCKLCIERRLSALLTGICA

[3] = target: T3, cGMP-dependent protein kinase 1 (Homo sapiens, UniProt Q13976)
T3 sequence (Q13976 whole entry): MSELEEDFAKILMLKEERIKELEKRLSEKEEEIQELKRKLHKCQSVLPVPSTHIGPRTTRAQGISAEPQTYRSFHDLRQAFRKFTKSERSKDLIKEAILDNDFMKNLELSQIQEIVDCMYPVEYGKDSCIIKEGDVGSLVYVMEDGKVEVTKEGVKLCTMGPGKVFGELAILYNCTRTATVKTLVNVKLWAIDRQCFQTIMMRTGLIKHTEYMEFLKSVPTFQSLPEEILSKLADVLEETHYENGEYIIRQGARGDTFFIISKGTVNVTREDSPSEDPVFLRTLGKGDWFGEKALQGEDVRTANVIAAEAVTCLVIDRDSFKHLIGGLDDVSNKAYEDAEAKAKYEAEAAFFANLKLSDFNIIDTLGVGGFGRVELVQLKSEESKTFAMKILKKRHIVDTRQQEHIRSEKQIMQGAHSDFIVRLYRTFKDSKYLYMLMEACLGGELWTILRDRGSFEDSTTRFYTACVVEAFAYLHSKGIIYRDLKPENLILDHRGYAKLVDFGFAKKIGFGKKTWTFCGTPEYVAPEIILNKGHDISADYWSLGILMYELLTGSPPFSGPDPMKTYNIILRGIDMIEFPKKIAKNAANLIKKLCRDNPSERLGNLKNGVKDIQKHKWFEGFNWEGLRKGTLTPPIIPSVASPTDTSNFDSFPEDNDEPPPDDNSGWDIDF

[4] = target: Epithelial discoidin domain-containing receptor 1 (Homo sapiens, UniProt Q08345)
[5] = target: Ribosomal protein S6 kinase beta-1 (Homo sapiens, UniProt P23443)
[6] = target: Putative heat shock protein HSP 90-beta 2 (Homo sapiens, UniProt Q58FF8)
Note: in the data inactive means no Kd found up to 30 µM.

Ribosomal protein S6 kinase beta-1, sequence (P23443 whole entry): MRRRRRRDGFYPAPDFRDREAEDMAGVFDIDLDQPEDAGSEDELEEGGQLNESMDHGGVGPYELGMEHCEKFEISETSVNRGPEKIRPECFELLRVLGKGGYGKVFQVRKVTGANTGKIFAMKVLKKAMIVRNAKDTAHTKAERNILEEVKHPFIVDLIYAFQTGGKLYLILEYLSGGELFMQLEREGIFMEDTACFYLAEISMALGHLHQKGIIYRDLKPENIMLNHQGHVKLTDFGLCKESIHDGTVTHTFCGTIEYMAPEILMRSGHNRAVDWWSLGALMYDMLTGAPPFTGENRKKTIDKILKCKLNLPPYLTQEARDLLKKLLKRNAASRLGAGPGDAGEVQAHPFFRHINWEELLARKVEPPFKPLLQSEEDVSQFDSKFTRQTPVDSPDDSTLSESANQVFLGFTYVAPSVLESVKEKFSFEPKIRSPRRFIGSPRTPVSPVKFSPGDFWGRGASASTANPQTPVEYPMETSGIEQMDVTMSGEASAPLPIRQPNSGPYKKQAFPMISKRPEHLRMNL
Epithelial discoidin domain-containing receptor 1, sequence (Q08345 whole entry, the tested form may be a part): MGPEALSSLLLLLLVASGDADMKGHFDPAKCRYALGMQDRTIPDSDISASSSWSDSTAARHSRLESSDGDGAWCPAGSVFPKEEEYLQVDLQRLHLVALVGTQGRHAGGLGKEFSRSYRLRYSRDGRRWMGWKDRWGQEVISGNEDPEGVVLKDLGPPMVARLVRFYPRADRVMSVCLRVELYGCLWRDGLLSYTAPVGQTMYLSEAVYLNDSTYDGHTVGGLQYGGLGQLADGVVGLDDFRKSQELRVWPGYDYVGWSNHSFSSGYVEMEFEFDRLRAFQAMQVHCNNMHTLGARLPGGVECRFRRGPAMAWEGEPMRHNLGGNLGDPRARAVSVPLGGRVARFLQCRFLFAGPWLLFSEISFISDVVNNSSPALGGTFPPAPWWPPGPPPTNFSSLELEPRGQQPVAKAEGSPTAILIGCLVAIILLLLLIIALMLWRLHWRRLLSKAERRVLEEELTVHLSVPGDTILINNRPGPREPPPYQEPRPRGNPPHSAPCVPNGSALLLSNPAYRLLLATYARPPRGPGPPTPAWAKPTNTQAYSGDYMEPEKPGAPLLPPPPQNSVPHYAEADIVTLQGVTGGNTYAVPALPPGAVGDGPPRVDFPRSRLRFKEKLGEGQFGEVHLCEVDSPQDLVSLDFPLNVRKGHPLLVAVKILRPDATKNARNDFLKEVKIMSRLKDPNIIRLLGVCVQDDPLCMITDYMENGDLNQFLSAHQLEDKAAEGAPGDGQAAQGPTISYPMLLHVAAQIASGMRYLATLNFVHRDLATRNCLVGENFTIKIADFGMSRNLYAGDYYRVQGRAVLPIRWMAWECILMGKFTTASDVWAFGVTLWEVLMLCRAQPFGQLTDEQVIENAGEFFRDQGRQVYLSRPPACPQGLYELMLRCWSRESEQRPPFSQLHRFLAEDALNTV
Putative heat shock protein HSP 90-beta 2, sequence (Q58FF8 whole entry): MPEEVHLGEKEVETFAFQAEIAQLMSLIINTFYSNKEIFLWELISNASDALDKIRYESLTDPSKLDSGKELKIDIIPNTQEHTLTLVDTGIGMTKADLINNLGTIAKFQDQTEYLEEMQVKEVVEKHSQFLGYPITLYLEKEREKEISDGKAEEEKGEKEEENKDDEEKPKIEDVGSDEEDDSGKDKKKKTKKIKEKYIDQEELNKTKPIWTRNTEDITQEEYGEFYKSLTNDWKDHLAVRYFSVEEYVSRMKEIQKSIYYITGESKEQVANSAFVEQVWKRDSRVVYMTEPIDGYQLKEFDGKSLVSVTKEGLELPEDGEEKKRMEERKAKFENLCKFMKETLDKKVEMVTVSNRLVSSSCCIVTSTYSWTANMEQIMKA

Row | Kd [1] | Kd [2] | Kd [3] | Kd [4] | Kd [5] | Kd [6] | Compound
1 | > 30 µM (inactive) | > 30 µM (inactive) | > 30 µM (inactive) | > 30 µM (inactive) | > 30 µM (inactive) | > 30 µM (inactive) | O=C1NC(=O)/C(=C/c2ccc3nccc(-c4ccncc4)c3c2)S1 [GSK-1059615]
2 | > 30 µM (inactive) | > 30 µM (inactive) | > 30 µM (inactive) | > 30 µM (inactive) | > 30 µM (inactive) | > 30 µM (inactive) | O=C(Nc1ccc(-c2ccnc(Nc3ccc(N4CCOCC4)cc3)n2)cc1)C1CCCN1 (stereo not given) [XL-019]
3 | > 30 µM (inactive) | > 30 µM (inactive) | > 30 µM (inactive) | > 30 µM (inactive) | > 30 µM (inactive) | > 30 µM (inactive) | CN1CCC(CNc2ccc3ncc(-c4cccc(OC(F)(F)F)c4)n3n2)CC1 [SGI-1776]
4 | > 30 µM (inactive) | > 30 µM (inactive) | > 30 µM (inactive) | > 30 µM (inactive) | > 30 µM (inactive) | > 30 µM (inactive) | Cc1cc([C@@H](C)Nc2ccccc2C(=O)O)c2nc(N3CCOCC3)cc(=O)n2c1 [AZD-6482]
5 | > 30 µM (inactive) | > 30 µM (inactive) | > 30 µM (inactive) | > 30 µM (inactive) | > 30 µM (inactive) | > 30 µM (inactive) | COc1ccc(-c2ccc3c(N4CCOC[C@@H]4C)nc(N4CCOC[C@@H]4C)nc3n2)cc1CO [AZD-8055]

More lines, now with the values behind:

Row | Compound | Kd [1] | Kd [2] | Kd [3] | Kd [4] | Kd [5] | Kd [6]
6 | CNC(=O)CN1CCC(Oc2cc3c(Nc4cccc(Cl)c4F)ncnc3cc2OC)CC1 [SAPITINIB] | > 30 µM (inactive) | > 30 µM (inactive) | > 30 µM (inactive) | > 30 µM (inactive) | > 30 µM (inactive) | > 30 µM (inactive)
7 | N[C@@H]1CCCN(c2c(/C=C3\SC(=O)NC3=O)cccc2-c2ccccc2)C1 | > 30 µM (inactive) | > 30 µM (inactive) | > 30 µM (inactive) | > 30 µM (inactive) | > 30 µM (inactive) | > 30 µM (inactive)
8 | CN1CCC(COc2cnc(-c3cccc(Cn4nc(-c5cccc(C#N)c5)ccc4=O)c3)nc2)CC1 [TEPOTINIB] | > 30 µM (inactive) | > 30 µM (inactive) | > 30 µM (inactive) | > 30 µM (inactive) | > 30 µM (inactive) | > 30 µM (inactive)
9 | COc1cc2nccc(Oc3ccc(NC(=O)Nc4cc(C)on4)c(Cl)c3)c2cc1OC [TIVOZANIB] | > 30 µM (inactive) | > 30 µM (inactive) | > 30 µM (inactive) | 0.19 µM (active) | > 30 µM (inactive) | > 30 µM (inactive)
10 | Cc1ccc(NC(=O)c2ccc(CN3CC[C@H](N(C)C)C3)c(C(F)(F)F)c2)cc1Nc1nccc(-c2cncnc2)n1 [BAFETINIB] | > 30 µM (inactive) | > 30 µM (inactive) | > 30 µM (inactive) | 0.014 µM (active) | > 30 µM (inactive) | > 30 µM (inactive)
11 | Cn1cc(-c2ccc(F)c(C(F)(F)F)c2)nc1C1CCN(c2ncnc3[nH]ncc23)CC1 [LY-2584702] | > 30 µM (inactive) | > 30 µM (inactive) | > 30 µM (inactive) | > 30 µM (inactive) | 0.015 µM (active) | > 30 µM (inactive)
12 | CCS(=O)(=O)N1CC(CC#N)(n2cc(-c3ncnc4[nH]ccc34)cn2)C1 [BARICITINIB] | > 30 µM (inactive) | 0.81 µM (active) | > 30 µM (inactive) | > 30 µM (inactive) | > 30 µM (inactive) | > 30 µM (inactive)
13 | COc1cc(OC)c(/C=C/S(=O)(=O)Cc2ccc(OC)c(NCC(=O)O)c2)c(OC)c1 [RIGOSERTIB] | > 30 µM (inactive) | > 30 µM (inactive) | > 30 µM (inactive) | > 30 µM (inactive) | > 30 µM (inactive) | > 30 µM (inactive)
14 | Cc1c(F)cc(C(=O)NC2CC2)cc1-c1ccc(C(=O)NCC(C)(C)C)cn1 [LOSMAPIMOD] | > 30 µM (inactive) | > 30 µM (inactive) | > 30 µM (inactive) | > 30 µM (inactive) | > 30 µM (inactive) | > 30 µM (inactive)
15 | CC[C@@H]1C(=O)N(C)c2cnc(Nc3ccc(C(=O)N[C@H]4CC[C@H](N5CCN(CC6CC6)CC5)CC4)cc3OC)nc2N1C(C)C [VOLASERTIB] | > 30 µM (inactive) | > 30 µM (inactive) | > 30 µM (inactive) | > 30 µM (inactive) | > 30 µM (inactive) | > 30 µM (inactive)
16 | CCn1c(=O)c(-c2cc[nH]n2)cc2c(C)nc(N)nc21 [VOXTALISIB] | > 30 µM (inactive) | > 30 µM (inactive) | > 30 µM (inactive) | > 30 µM (inactive) | > 30 µM (inactive) | > 30 µM (inactive)
17 | COC(=O)[C@@]1(O)C[C@H]2O[C@]1(C)n1c3ccccc3c3c4c(c5c6ccccc6n2c5c31)C(=O)NC4 [K-252A] | > 30 µM (inactive) | > 30 µM (inactive) | > 30 µM (inactive) | > 30 µM (inactive) | > 30 µM (inactive) | > 30 µM (inactive)
18 | CN(C)C(=O)c1cc2cnc(Nc3ccc(N4CCNCC4)cn3)nc2n1C1CCCC1 [RIBOCICLIB] | > 30 µM (inactive) | > 30 µM (inactive) | > 30 µM (inactive) | > 30 µM (inactive) | > 30 µM (inactive) | > 30 µM (inactive)
19 | Cc1cc2c(F)c(Oc3ncnn4cc(OC[C@@H](C)OC(=O)[C@H](C)N)c(C)c34)ccc2[nH]1 [BRIVANIB ALANINATE] | > 30 µM (inactive) | > 30 µM (inactive) | > 30 µM (inactive) | 1.04 µM (active) | > 30 µM (inactive) | > 30 µM (inactive)
20 | Cc1ccc(-n2nc(C(C)(C)C)cc2NC(=O)NCc2cc(F)ccc2Oc2ccc3c(cnn3CCO)c2)cc1 [PEXMETINIB] | > 30 µM (inactive) | > 30 µM (inactive) | > 30 µM (inactive) | 0.363 µM (active) | > 30 µM (inactive) | > 30 µM (inactive)
